Columns and labels:
Mycobacterium ulcerans [1] = experiment: Antimycobacterial activity in Mycobacterium ulcerans Cu001 infected BALB/c mouse assessed as mean number of CFU per foot-pad at […], sc after 2 weeks; format: functional
Mycobacterium ulcerans [2] = experiment: Antimycobacterial activity in Mycobacterium ulcerans Cu001 infected BALB/c mouse assessed as mean number of CFU per foot-pad at 10 mg/kg, sc after 2 weeks; format: functional; conditions: route subcutaneous

For `NCC[C@H](O)C(=O)N[C@@H]1C[C@H](N)[C@@H](O[C@H]2O[C@H](CN)[C@@H](O)[C@H](O)[C@H]2O)[C@H](O)[C@H]1O[C@H]1O[C@H](CO)[C@@H](O)[C@H](N)[C@H]1O` [AMIKACIN], the Log10 cfu (Mycobacterium ulcerans [1]) was 3.92.
`CO[C@H]1/C=C/O[C@@]2(C)Oc3c(C)c(O)c4c(O)c(c(/C=N/N5CCN(C)CC5)c(O)c4c3C2=O)NC(=O)/C(C)=C\C=C\[C@H](C)[C@H](O)[C@@H](C)[C@@H](O)[C@@H](C)[C@H](OC(C)=O)[C@@H]1C` [RIFAMPIN] gave a Log10 cfu (Mycobacterium ulcerans [2]) of 4.13.
`CN[C@@H]1[C@H](O[C@H]2[C@H](O[C@H]3[C@H](O)[C@@H](O)[C@H](N=C(N)N)[C@@H](O)[C@@H]3N=C(N)N)O[C@@H](C)[C@]2(O)C=O)O[C@@H](CO)[C@H](O)[C@H]1O` [STREPTOMYCIN] was tested, and the Log10 cfu (Mycobacterium ulcerans [1]) was 4.13.

— ChEMBL document CHEMBL1142172, “Curing Mycobacterium ulcerans infection in mice with a combination of rifampin-streptomycin or rifampin-amikacin” (2007)
